{
  "source": "paper PMC6193938",
  "about": "“Characterization of a novel AICARFT inhibitor which potently elevates ZMP and has anti-tumor activity in murine models” (Scientific Reports, 2018)",
  "key": {"[1]": {"tested_on": "protein kinase", "experiment": "Panel of protein kinase assays at CEREP Panlabs (Eurofins), overall", "assay_type": "biochemical"}, "[2]": {"tested_on": "cell lines of Table 1", "experiment": "MS detection of ZMP in cultured cells, average over cell lines", "assay_type": "cell-based", "conditions": "Homo sapiens", "experimental": "Cells lines were acquired from cell banks, see supplemental material, grown using the cell banks recommended culture conditions (Supplemental Table 3). In some experiments noted “low folate” the cells were washed and grown in folate free RPMI-1640 media (Gibco #27016-021) supplemented with 5 ml 1 M Hepes, 5 ml 100 mM Na pyruvate, 2.5 mg/ml glucose and 10% defined FBS (Hyclone #SH30070) per 500 mL media for 5–7 days to deplete intracellular folate levels prior to the start of the experiment. Where noted, cells were maintained in complete “high folate” RPMI-1640 media (ATCC #30-2001) with 10% defined FBS to contrast with the low folate conditions.\nZMP was detected in cultured cells via mass spec analysis. Cells were plated in 96-well plates at 25,000 cells per well in 100 µL with either high or low folate RPMI media and incubated overnight at 37 °C with 5% CO2. Cells were treated with inhibitor compounds for 16 hours, 0.5% DMSO final concentration. […]\nZMP, AICAr and dUMP were detected using positive ion TurboIonSpray® multiple reaction monitoring mode and the data were processed with AB Sciex MultiQuant™. Back-calculated ZMP concentrations were fit to a four-parameter logistic equation using ACTIVITYBASE 4.0 to determine EC50 values relative to the maximum observed metabolite levels."}, "[3]": {"target": "T1, ALK (Homo sapiens, UniProt Q9UM73)", "T1 construct": "purchased CEREP Panlabs (Eurofins)", "T1 sequence (Q9UM73 19-1620)": "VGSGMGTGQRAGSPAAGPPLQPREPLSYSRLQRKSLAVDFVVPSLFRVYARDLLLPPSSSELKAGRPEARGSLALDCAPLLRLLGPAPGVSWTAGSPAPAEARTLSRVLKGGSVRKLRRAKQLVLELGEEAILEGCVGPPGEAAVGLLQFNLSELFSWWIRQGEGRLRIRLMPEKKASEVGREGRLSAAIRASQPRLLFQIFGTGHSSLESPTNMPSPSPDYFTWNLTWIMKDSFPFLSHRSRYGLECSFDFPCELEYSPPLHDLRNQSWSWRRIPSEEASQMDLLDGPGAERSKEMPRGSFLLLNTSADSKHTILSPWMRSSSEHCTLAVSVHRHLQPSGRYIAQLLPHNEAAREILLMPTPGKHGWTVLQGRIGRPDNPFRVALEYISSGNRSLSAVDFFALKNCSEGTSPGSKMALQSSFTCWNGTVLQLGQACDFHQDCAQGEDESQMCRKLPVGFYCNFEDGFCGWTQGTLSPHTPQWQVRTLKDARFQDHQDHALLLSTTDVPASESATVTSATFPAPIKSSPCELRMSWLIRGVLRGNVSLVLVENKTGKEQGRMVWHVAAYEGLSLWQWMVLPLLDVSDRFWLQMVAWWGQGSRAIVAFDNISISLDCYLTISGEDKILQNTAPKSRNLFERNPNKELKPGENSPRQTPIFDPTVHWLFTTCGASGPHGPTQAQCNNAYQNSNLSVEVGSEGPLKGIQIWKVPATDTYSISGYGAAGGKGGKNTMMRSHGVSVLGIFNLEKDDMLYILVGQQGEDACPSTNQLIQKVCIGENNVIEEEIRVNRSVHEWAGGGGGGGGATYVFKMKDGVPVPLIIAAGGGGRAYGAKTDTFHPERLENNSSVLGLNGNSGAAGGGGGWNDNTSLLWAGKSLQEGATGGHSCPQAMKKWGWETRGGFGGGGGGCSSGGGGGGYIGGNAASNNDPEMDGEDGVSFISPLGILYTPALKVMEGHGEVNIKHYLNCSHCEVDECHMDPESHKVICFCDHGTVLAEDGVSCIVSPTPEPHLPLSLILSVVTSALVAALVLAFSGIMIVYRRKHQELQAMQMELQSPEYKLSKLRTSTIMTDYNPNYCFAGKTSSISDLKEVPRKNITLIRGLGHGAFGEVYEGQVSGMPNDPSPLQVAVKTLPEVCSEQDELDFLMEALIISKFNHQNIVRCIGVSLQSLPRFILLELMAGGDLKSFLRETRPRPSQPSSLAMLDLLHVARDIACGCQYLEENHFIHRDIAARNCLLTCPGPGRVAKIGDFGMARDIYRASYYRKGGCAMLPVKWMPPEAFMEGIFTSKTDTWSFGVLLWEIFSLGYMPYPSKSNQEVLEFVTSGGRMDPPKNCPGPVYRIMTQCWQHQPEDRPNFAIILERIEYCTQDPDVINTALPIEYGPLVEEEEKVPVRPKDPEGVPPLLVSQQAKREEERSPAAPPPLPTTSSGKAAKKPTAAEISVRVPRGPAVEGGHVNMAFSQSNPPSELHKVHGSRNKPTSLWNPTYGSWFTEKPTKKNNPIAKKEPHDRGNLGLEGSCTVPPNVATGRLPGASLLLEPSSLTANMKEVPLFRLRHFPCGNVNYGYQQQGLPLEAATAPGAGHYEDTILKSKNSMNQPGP", "experiment": "CEREP protein kinase assay", "assay_type": "biochemical"}, "[4]": {"target": "T2, ROCK2 (Homo sapiens, UniProt O75116)", "T2 construct": "purchased CEREP Panlabs (Eurofins)", "T2 sequence (O75116 whole entry)": "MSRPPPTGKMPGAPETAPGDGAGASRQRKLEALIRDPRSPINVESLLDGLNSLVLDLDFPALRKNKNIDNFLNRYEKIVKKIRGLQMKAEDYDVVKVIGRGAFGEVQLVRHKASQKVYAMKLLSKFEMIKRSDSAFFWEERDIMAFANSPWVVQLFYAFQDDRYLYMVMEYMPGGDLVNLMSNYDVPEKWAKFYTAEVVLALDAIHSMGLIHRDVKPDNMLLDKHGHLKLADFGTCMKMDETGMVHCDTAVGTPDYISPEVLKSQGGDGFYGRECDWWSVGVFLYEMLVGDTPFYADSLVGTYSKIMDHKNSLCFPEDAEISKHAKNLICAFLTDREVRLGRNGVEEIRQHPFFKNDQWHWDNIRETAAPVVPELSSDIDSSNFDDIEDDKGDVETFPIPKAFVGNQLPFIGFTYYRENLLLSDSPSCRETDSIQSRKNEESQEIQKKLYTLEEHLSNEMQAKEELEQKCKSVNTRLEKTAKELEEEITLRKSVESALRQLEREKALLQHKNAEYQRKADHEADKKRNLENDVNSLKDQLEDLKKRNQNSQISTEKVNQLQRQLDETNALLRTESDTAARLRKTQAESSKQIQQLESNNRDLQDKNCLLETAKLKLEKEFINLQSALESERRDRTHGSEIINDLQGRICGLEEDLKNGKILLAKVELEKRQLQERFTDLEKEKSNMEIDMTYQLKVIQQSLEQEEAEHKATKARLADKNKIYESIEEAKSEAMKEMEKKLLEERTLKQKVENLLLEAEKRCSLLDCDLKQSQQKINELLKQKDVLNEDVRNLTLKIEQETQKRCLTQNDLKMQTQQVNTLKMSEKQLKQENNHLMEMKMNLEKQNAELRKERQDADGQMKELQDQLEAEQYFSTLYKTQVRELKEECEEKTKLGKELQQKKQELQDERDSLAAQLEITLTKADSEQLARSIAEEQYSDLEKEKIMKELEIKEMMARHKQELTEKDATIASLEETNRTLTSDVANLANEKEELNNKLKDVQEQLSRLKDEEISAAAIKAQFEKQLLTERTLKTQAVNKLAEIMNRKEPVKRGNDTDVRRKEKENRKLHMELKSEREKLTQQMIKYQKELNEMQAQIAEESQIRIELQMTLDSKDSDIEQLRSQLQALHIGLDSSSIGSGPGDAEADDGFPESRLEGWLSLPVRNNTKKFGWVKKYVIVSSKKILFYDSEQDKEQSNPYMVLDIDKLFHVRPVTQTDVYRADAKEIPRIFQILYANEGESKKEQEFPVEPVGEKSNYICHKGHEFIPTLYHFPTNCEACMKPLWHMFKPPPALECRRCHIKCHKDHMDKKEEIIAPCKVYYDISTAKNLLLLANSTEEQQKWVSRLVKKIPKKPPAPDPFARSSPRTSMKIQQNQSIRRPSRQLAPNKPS", "experiment": "CEREP protein kinase assay", "assay_type": "biochemical"}, "[5]": {"target": "T3, PDGFRb (Homo sapiens, UniProt P09619)", "T3 construct": "purchased CEREP Panlabs (Eurofins)", "T3 sequence (P09619 33-1106)": "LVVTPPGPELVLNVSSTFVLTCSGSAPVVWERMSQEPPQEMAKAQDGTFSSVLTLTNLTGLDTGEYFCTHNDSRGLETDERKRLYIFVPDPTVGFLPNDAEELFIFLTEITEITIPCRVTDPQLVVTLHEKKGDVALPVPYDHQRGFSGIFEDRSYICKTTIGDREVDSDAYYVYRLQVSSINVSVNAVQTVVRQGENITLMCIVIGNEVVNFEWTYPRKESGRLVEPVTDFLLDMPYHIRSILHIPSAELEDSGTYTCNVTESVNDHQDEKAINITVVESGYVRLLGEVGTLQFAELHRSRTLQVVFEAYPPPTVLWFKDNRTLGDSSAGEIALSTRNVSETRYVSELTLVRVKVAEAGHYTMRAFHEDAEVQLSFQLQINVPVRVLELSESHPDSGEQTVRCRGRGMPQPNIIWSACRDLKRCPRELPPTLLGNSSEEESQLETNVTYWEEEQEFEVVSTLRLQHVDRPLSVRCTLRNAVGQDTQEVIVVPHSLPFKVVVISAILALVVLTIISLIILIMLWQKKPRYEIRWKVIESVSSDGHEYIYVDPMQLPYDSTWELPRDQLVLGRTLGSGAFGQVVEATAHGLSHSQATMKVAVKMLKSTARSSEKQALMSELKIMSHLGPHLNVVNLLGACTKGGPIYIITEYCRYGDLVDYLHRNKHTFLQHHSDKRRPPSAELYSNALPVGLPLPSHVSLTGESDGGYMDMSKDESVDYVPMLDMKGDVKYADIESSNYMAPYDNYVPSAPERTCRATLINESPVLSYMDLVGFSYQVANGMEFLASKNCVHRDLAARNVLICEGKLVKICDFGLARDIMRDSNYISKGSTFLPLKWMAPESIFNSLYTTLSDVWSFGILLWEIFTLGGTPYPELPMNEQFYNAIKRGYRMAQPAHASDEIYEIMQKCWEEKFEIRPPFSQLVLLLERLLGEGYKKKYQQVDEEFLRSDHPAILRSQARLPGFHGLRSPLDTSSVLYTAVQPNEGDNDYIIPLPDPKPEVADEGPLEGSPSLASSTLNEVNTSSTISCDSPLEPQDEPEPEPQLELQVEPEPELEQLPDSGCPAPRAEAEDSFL", "experiment": "CEREP protein kinase assay", "assay_type": "biochemical"}, "[6]": {"target": "T4, EPHB1 (Homo sapiens, UniProt P54762)", "T4 construct": "purchased CEREP Panlabs (Eurofins)", "T4 sequence (P54762 18-984)": "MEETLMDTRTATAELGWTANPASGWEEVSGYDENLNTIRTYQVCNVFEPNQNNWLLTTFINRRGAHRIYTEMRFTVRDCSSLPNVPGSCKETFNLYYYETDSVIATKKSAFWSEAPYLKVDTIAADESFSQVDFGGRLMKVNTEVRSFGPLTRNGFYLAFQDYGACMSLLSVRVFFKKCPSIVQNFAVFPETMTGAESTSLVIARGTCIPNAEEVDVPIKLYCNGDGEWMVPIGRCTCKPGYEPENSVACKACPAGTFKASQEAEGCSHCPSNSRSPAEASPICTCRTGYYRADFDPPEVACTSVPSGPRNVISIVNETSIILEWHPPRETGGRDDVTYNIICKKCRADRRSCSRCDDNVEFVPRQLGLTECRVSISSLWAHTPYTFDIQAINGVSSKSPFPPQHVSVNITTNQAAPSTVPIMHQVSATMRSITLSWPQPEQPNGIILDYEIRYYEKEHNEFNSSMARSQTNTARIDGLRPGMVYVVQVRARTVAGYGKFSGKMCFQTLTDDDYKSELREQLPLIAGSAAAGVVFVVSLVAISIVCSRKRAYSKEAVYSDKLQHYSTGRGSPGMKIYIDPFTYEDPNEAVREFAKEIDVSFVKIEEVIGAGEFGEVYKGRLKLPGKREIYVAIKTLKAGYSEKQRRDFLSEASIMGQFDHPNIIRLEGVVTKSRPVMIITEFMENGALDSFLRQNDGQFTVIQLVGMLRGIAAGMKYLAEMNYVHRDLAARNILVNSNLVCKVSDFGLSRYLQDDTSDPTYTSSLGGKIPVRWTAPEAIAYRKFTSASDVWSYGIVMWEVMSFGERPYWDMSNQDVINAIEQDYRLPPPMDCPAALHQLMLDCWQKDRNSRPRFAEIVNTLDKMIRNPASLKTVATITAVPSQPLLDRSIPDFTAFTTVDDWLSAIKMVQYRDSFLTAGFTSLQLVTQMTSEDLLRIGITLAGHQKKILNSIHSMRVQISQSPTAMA", "experiment": "CEREP protein kinase assay", "assay_type": "biochemical"}},
  "data": [
    {"compound": "O=c1[nH]ccc2cc(F)c(NS(=O)(=O)c3ccc(N4CC[C@@H](O)C4)s3)cc12", "note": "[LSN3213128, N-(6-Fluoro-1-oxo-1,2-dihydroisoquinolin-7-yl)-5-[(3R)-3-hydroxypyrrolidin-1-yl]thiophene-2-sulfonamide]", "values": [
      {"measurement": "protein kinase activity, panel", "setting": "[1]", "result": "no significant protein kinase activity"},
      {"measurement": "EC50", "setting": "[2]; low folate media, 12 cell lines", "result": "4.9 ± 2.6", "unit": "nM"},
      {"measurement": "EC50", "setting": "[2]; normal RPMI, 8 cell lines", "result": 1210, "unit": "nM"},
      {"measurement": "inhibition at 0.2 µM", "setting": "[3]; @ 0.2 uM", "result": -16.7, "unit": "%"},
      {"measurement": "inhibition at 2 µM", "setting": "[3]; @ 2 uM", "result": 7.47, "unit": "%"},
      {"measurement": "inhibition at 20 µM", "setting": "[3]; @ 20 uM", "result": 31.8, "unit": "%"},
      {"measurement": "inhibition at 0.2 µM", "setting": "[4]; @ 0.2 uM", "result": -3.09, "unit": "%"},
      {"measurement": "inhibition at 2 µM", "setting": "[4]; @ 2 uM", "result": 4.72, "unit": "%"},
      {"measurement": "inhibition at 20 µM", "setting": "[4]; @ 20 uM", "result": 5.81, "unit": "%"},
      {"measurement": "inhibition at 0.2 µM", "setting": "[5]; @ 0.2 uM", "result": -85.9, "unit": "%"},
      {"measurement": "inhibition at 2 µM", "setting": "[5]; @ 2 uM", "result": -63.2, "unit": "%"},
      {"measurement": "inhibition at 20 µM", "setting": "[5]; @ 20 uM", "result": -71, "unit": "%"},
      {"measurement": "inhibition at 0.2 µM", "setting": "[6]; @ 0.2 uM", "result": -10.2, "unit": "%"},
      {"measurement": "inhibition at 2 µM", "setting": "[6]; @ 2 uM", "result": 11.7, "unit": "%"},
      {"measurement": "inhibition at 20 µM", "setting": "[6]; @ 20 uM", "result": 57.1, "unit": "%"}
    ]}
  ]
}
